Data published in US12116358B2, “Substituted indoles and methods of use thereof” (EPIZYME, INC., priority 2018, dated 2024).
Like-named read-outs stand apart in the source and are kept apart here.

Assays:
SETD2(1434-1711) = molecular target: T1, SETD2(1434-1711) (Homo sapiens, UniProt Q9BYW2); assay: SETD2 (1434-1711) assay; type: biochemical; details: read-out: SETD2 (1434-1711)
T1 construct: SETD2 (1434-1711) Assay; catalogue N/A
T1 sequence (Q9BYW2 1434-1711): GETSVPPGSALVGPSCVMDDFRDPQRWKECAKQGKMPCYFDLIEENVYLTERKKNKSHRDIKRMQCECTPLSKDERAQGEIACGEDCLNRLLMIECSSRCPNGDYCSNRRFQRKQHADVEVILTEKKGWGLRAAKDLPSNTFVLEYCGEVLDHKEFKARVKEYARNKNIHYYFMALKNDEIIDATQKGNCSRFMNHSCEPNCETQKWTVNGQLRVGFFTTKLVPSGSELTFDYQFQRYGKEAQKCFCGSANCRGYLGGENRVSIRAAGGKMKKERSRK

H3K36me3 in A549 cells = assay: In-Cell Western (ICW) assay of SETD2 inhibitors (A549 assay); type: cell-based, human; details: A549 cells, read-out: SETD2 A549
Summary of the method: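 A549 cells seeded at 4,000/well onto compound and incubated 3 days at 37° C. Methanol-fixed cells stained overnight at 4° C with anti-H3K36me3 (1:1000), then IRDye 800CW secondary with DRAQ5 DNA counterstain. Plates read by Licor imaging at 700 and 800 channels.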

| IC50 (SETD2(1434-1711)) | IC50 (H3K36me3 in A549 cells; Homo sapiens) | IC50 (H3K36me3 in A549 cells) | SMILES |
| --- | --- | --- | --- |
| 1400 nM | 1700 nM |  | CC(=O)N1CCN([C@@H]2CCC[C@@H](NC(=O)c3cc4c(F)ccc(C)c4[nH]3)C2)C[C@H]1CO [compound 1076] |
| > 10000 nM | > 2000 nM |  | CC(=O)N1CCN(C[C@@H]2CCC[C@H](NC(=O)c3cc4c(F)ccc(C)c4[nH]3)C2)CC1 [compound 1077] |
| 10 nM |  | 30 nM | Cc1ccc(F)c2cc(C(=O)NC3CCCC(N4CCN5C(=O)CCCC5C4)C3)[nH]c12 (stereo not shown) [compound 1078] |
| 300 nM | 1300 nM |  | Cc1ccc(F)c2cc(C(=O)N[C@@H]3CCC[C@@H](N4CCN5C(=O)CCC[C@@H]5C4)C3)[nH]c12 [compound 1079] |
| 500 nM |  | 1700 nM | Cc1ccc(F)c2cc(C(=O)NC3CCCC(N4CCN5C(=O)CCCC5C4)C3)[nH]c12 (stereo not shown) [compound 1080] |
| 600 nM | > 2000 nM |  | Cc1ccc(F)c2cc(C(=O)N[C@@H]3CCC[C@@H](N4CCN5C(=O)NC[C@H]5C4)C3)[nH]c12 [compound 1082] |
| 20 nM |  | 50 nM | Cc1ccc(F)c2cc(C(=O)NC3CCCC(N4CCN5C(=O)NCC5C4)C3)[nH]c12 (stereo not shown) [compound 1083] |
| 100 nM |  | 500 nM | Cc1ccc(F)c2cc(C(=O)NC3CCCC(N4CCN5C(=O)NCC5C4)C3)[nH]c12 (stereo not shown) [compound 1084] |
| 30 nM | 100 nM |  | CC[C@H]1CN([C@H]2CCC[C@@H](NC(=O)c3cc4c(F)ccc(C)c4[nH]3)C2)CCN1C(C)=O [compound 1085] |
| 800 nM | > 2000 nM |  | CC[C@H]1CN([C@@H]2CCC[C@@H](NC(=O)c3cc4c(F)ccc(C)c4[nH]3)C2)CCN1C(C)=O [compound 1086] |
| 10 nM | 500 nM |  | CN[C@H]1CCN([C@H]2CCC[C@@H](NC(=O)c3cc4c(F)ccc(C)c4[nH]3)C2)C1 [compound 1087] |
| 2200 nM | > 2000 nM |  | CN[C@H]1CCN([C@@H]2CCC[C@@H](NC(=O)c3cc4c(F)ccc(C)c4[nH]3)C2)C1 [compound 1088] |
| 500 nM | 1100 nM |  | Cc1ccc(F)c2cc(C(=O)N[C@@H]3CCC[C@H](N4CC[C@H](N(C)C)C4=O)C3)[nH]c12 [compound 1090] |
| 5800 nM | > 2000 nM |  | CC(=O)N1CCN([C@@H]2CCC[C@@H](NC(=O)c3cc4c(F)ccc(C)c4[nH]3)C2)[C@H](C)C1 [compound 1091] |
| 800 nM | 800 nM |  | CC(=O)N1CCN([C@H]2CCC[C@@H](NC(=O)c3cc4c(F)ccc(C)c4[nH]3)C2)[C@H](C)C1 [compound 1092] |
| 600 nM | > 2000 nM |  | CC[C@@H]1CN([C@@H]2CCC[C@@H](NC(=O)c3cc4c(F)ccc(C)c4[nH]3)C2)CCN1C(C)=O [compound 1095] |
| 2400 nM | > 2000 nM |  | CC(=O)N1[C@H](C)CN([C@@H]2CCC[C@@H](NC(=O)c3cc4c(F)ccc(C)c4[nH]3)C2)C[C@@H]1C [compound 1096] |
| 30 nM | 300 nM |  | CC(=O)N1CCN([C@H]2CCC[C@@H](NC(=O)c3cc4c(F)ccc(C)c4[nH]3)C2)C[C@H]1CO [compound 1098] |
| 10 nM | 100 nM |  | CC(=O)N1CCN([C@H]2CCC[C@@H](NC(=O)c3cc4c(F)ccc(C)c4[nH]3)C2)C[C@@H]1CO [compound 1099] |
| 900 nM | > 2000 nM |  | CC(=O)N1CCN([C@@H]2CCC[C@@H](NC(=O)c3cc4c(F)ccc(C)c4[nH]3)C2)CC12CC2 [compound 1100] |
| 3900 nM |  | > 2000 nM | Cc1ccc(F)c2cc(C(=O)NC3CCCC(N4CCN5C(=O)CN(C)C(=O)C5C4)C3)[nH]c12 (stereo not shown) [compound 1102] |
| 100 nM |  | 100 nM | Cc1ccc(F)c2cc(C(=O)NC3CCCC(N4CCN5C(=O)CN(C)C(=O)C5C4)C3)[nH]c12 (stereo not shown) [compound 1103] |
| 40 nM |  | 200 nM | Cc1ccc(F)c2cc(C(=O)NC3CCCC(N4CCN5C(=O)CN(C)C(=O)C5C4)C3)[nH]c12 (stereo not shown) [compound 1104] |
